In US20130157954A1, “METHODS FOR TREATMENT OR PROPHYLAXIS OF KIDNEY OR LIVER DYSFUNCTION” (NPS PHARMACEUTICALS, INC., priority 2010, published 2013):

Experiment: Example 1: liver biomarkers (total bilirubin, ALT, AST, ALP) in short bowel syndrome patients, every four weeks for 24 weeks; also sorted by >5% change from baseline
Format: in vivo, Human
Set-up: AST (SGOT) Change from Baseline Median / ALT (SGPT) Median / TOTAL BILIRUBIN Median / TOTAL BILIRUBIN Change from Baseline Median / ALT (SGPT) Change from Baseline Median / AST (SGOT) Median: unit not given here
Settings: for AST (SGOT) Change from Baseline Median / AST (SGOT) Median / TOTAL BILIRUBIN Change from Baseline Median / TOTAL BILIRUBIN Median / ALKALINE PHOSPHATASE Change from Baseline Median / ALT (SGPT) Change from Baseline Median / ALT (SGPT) Median: 0.10 mg/kg/day; for ALKALINE PHOSPHATASE change from baseline <−5%, number of patients / ALKALINE PHOSPHATASE change from baseline <−5%, percent of patients / ALKALINE PHOSPHATASE change from baseline >5%, number of patients / ALKALINE PHOSPHATASE change from baseline >5%, percent of patients / ALKALINE PHOSPHATASE change from baseline −5% <= and <=5%, number of patients / ALKALINE PHOSPHATASE change from baseline −5% <= and <=5%, percent of patients / ALT (SGPT) change from baseline <−5%, number of patients / ALT (SGPT) change from baseline <−5%, percent of patients / ALT (SGPT) change from baseline >5%, number of patients / ALT (SGPT) change from baseline >5%, percent of patients / ALT (SGPT) change from baseline −5% <= and <=5%, number of patients / ALT (SGPT) change from baseline −5% <= and <=5%, percent of patients / AST (SGOT) change from baseline <−5%, number of patients / AST (SGOT) change from baseline <−5%, percent of patients / AST (SGOT) change from baseline >5%, number of patients / AST (SGOT) change from baseline >5%, percent of patients / AST (SGOT) change from baseline −5% <= and <=5%, number of patients / AST (SGOT) change from baseline −5% <= and <=5%, percent of patients / TOTAL BILIRUBIN change from baseline <−5%, number of patients / TOTAL BILIRUBIN change from baseline <−5%, percent of patients / TOTAL BILIRUBIN change from baseline >5%, number of patients / TOTAL BILIRUBIN change from baseline >5%, percent of patients / TOTAL BILIRUBIN change from baseline −5% <= and <=5%, number of patients / TOTAL BILIRUBIN change from baseline −5% <= and <=5%, percent of patients: 0.1 mg/kg/day
Protocol: Human patients with short bowel syndrome were divided into three groups: a control group (16 total individuals) to receive placebo, an experimental group (35 total individuals) to receive teduglutide at 0.05 mg/kg/day throughout the study, and an experimental group (32 total individuals) to receive teduglutide at 0.1 mg/kg/day throughout the study. Patients were treated by subcutaneous injection of placebo or the appropriate dose of teduglutide. As individuals with short bowel syndrome are likely to experience associated liver and kidney disease, known biomarkers of liver and kidney function were monitored every four weeks, for 24 weeks. The liver biomarkers tested included total bilirubin, ALT and AST and ALP. The kidney biomarkers tested included urea nitrogen, creatinine and GFR. Before administration of placebo or teduglutide, diagnostic biomarker levels were tested to establish a baseline for each individual.
To visualize the effect of GLP-2 on the levels of the diagnostic biomarkers, the average change from baseline was calculated for the placebo and teduglutide treated groups for each visit after a baseline was established. The average change from baseline of each group is depicted in FIGS. 1-7. The numerical figures for each diagnostic biomarker at each time point are depicted in Table 1.
The efficacy of teduglutide in treating liver dysfunction was further tested by sorting the data into two groups: individuals with abnormal baseline values of liver diagnostic biomarkers; and individuals with normal baseline values of liver diagnostic biomarkers. The mean diagnostic biomarker change from baseline for these two groups is shown for ALT (FIGS. 5 and 6) and AST (FIGS. 7 and 8). […] These changes were significant when compared to baseline levels for the group, and when compared to placebo (see FIGS. 5 and 7).
The raw data for this sorting is reproduced in Table 2 below.

In the case of `CC[C@H](C)[C@H](NC(=O)[C@H](Cc1ccccc1)NC(=O)[C@H](CC(=O)O)NC(=O)[C@H](CCCNC(=N)N)NC(=O)[C@H](C)NC(=O)[C@H](C)NC(=O)[C@H](CC(C)C)NC(=O)[C@H](CC(N)=O)NC(=O)[C@H](CC(=O)O)NC(=O)[C@H](CC(C)C)NC(=O)[C@@H](NC(=O)[C@@H](NC(=O)[C@H](CC(N)=O)NC(=O)[C@H](CCSC)NC(=O)[C@H](CCC(=O)O)NC(=O)[C@H](CC(=O)O)NC(=O)[C@H](CO)NC(=O)[C@H](Cc1ccccc1)NC(=O)[C@H](CO)NC(=O)CNC(=O)[C@H](CC(=O)O)NC(=O)CNC(=O)[C@@H](N)Cc1c[nH]cn1)[C@@H](C)O)[C@@H](C)CC)C(=O)N[C@@H](CC(N)=O)C(=O)N[C@@H](Cc1c[nH]c2ccccc12)C(=O)N[C@@H](CC(C)C)C(=O)N[C@H](C(=O)N[C@@H](CCC(N)=O)C(=O)N[C@H](C(=O)N[C@@H](CCCCN)C(=O)N[C@H](C(=O)N[C@H](C(=O)N[C@@H](CC(=O)O)C(=O)O)[C@@H](C)O)[C@@H](C)CC)[C@@H](C)O)[C@@H](C)CC` [teduglutide], the “AST (SGOT) Change from Baseline Median” value (DW4) is reported as −5.0, the “AST (SGOT) Median” value (DW4) is reported as 28.0 and the “TOTAL BILIRUBIN Change from Baseline Median” value (DW4) is reported as −1.0. The “TOTAL BILIRUBIN Median” value (DW4) was 7.0, the “ALKALINE PHOSPHATASE Change from Baseline Median” value (DW8) was −20.0 and the “ALT (SGPT) Change from Baseline Median” value (DW8) was −8.0. For the same molecule, the “AST (SGOT) Change from Baseline Median” value (DW8) was −5.0, the “AST (SGOT) Median” value (DW8) was 28.0 and the “TOTAL BILIRUBIN Change from Baseline Median” value (DW8) was −1.0. The “TOTAL BILIRUBIN Median” value (DW8) was 7.0, the “ALT (SGPT) Change from Baseline Median” value (DW12) was −11.0 and the “ALT (SGPT) Median” value (DW12) was 35.0. For the same molecule, the “AST (SGOT) Change from Baseline Median” value (DW12) was −3.5, the “TOTAL BILIRUBIN Change from Baseline Median” value (DW12) was 0.0 and the “TOTAL BILIRUBIN Median” value (DW12) was 7.0. For the same molecule, the “ALT (SGPT) Change from Baseline Median” value (DW16) was −10.0, the “ALT (SGPT) Median” value (DW16) was 30.0 and the “AST (SGOT) Change from Baseline Median” value (DW16) was −4.0. For the same molecule, the “AST (SGOT) Median” value (DW16) was 30.0, the “TOTAL BILIRUBIN Change from Baseline Median” value (DW16) was −0.5 and the “TOTAL BILIRUBIN Median” value (DW16) was 7.5. For the same molecule, the “ALKALINE PHOSPHATASE Change from Baseline Median” value (DW20) was −23.0, the “ALT (SGPT) Change from Baseline Median” value (DW20) was −9.0 and the “ALT (SGPT) Median” value (DW20) was 29.0. The “AST (SGOT) Change from Baseline Median” value (DW20) was −2.5, the “AST (SGOT) Median” value (DW20) was 30.0 and the “TOTAL BILIRUBIN Change from Baseline Median” value (DW20) was 0.0. The “TOTAL BILIRUBIN Median” value (DW20) was 7.0, the “ALKALINE PHOSPHATASE Change from Baseline Median” value (DW 24) was −21.0 and the “ALT (SGPT) Change from Baseline Median” value (DW 24) was −4.0. The “ALT (SGPT) Median” value (DW 24) was 37.0, the “AST (SGOT) Change from Baseline Median” value (DW 24) was −3.0 and the “AST (SGOT) Median” value (DW 24) was 32.0. The “TOTAL BILIRUBIN Change from Baseline Median” value (DW 24) was 0.0, the “TOTAL BILIRUBIN Median” value (DW 24) was 9.0 and the “ALKALINE PHOSPHATASE change from baseline <−5%, number of patients” value (week 4) was 17. For the same molecule, the “ALKALINE PHOSPHATASE change from baseline <−5%, percent of patients” value (week 4) was “(53.1%)”, the “ALKALINE PHOSPHATASE change from baseline >5%, number of patients” value (week 4) was 11 and the “ALKALINE PHOSPHATASE change from baseline >5%, percent of patients” value (week 4) was “(34.4%)”. For the same molecule, the “ALKALINE PHOSPHATASE change from baseline −5% <= and <=5%, number of patients” value (week 4) was 4, the “ALKALINE PHOSPHATASE change from baseline −5% <= and <=5%, percent of patients” value (week 4) was “(12.5%)” and the “ALT (SGPT) change from baseline <−5%, number of patients” value (week 4) was 20. The “ALT (SGPT) change from baseline <−5%, percent of patients” value (week 4) was “(62.5%)”, the “ALT (SGPT) change from baseline >5%, number of patients” value (week 4) was 10 and the “ALT (SGPT) change from baseline >5%, percent of patients” value (week 4) was “(31.3%)”. For the same molecule, the “ALT (SGPT) change from baseline −5% <= and <=5%, number of patients” value (week 4) was 2, the “ALT (SGPT) change from baseline −5% <= and <=5%, percent of patients” value (week 4) was “(6.3%)” and the “AST (SGOT) change from baseline <−5%, number of patients” value (week 4) was 17. For the same molecule, the “AST (SGOT) change from baseline <−5%, percent of patients” value (week 4) was “(53.1%)”, the “AST (SGOT) change from baseline >5%, number of patients” value (week 4) was 10 and the “AST (SGOT) change from baseline >5%, percent of patients” value (week 4) was “(31.3%)”. The “AST (SGOT) change from baseline −5% <= and <=5%, number of patients” value (week 4) was 4, the “AST (SGOT) change from baseline −5% <= and <=5%, percent of patients” value (week 4) was “(12.5%)” and the “TOTAL BILIRUBIN change from baseline <−5%, number of patients” value (week 4) was 16. For the same molecule, the “TOTAL BILIRUBIN change from baseline <−5%, percent of patients” value (week 4) was “(50.0%)”, the “TOTAL BILIRUBIN change from baseline >5%, number of patients” value (week 4) was 12 and the “TOTAL BILIRUBIN change from baseline >5%, percent of patients” value (week 4) was “(37.5%)”. For the same molecule, the “TOTAL BILIRUBIN change from baseline −5% <= and <=5%, number of patients” value (week 4) was 3, the “TOTAL BILIRUBIN change from baseline −5% <= and <=5%, percent of patients” value (week 4) was “(9.4%)” and the “ALKALINE PHOSPHATASE change from baseline <−5%, number of patients” value (week 8) was 24. The “ALKALINE PHOSPHATASE change from baseline <−5%, percent of patients” value (week 8) was “(75.0%)”, the “ALKALINE PHOSPHATASE change from baseline >5%, number of patients” value (week 8) was 5 and the “ALKALINE PHOSPHATASE change from baseline >5%, percent of patients” value (week 8) was “(15.6%)”. The “ALKALINE PHOSPHATASE change from baseline −5% <= and <=5%, number of patients” value (week 8) was 2, the “ALKALINE PHOSPHATASE change from baseline −5% <= and <=5%, percent of patients” value (week 8) was “(6.3%)” and the “ALT (SGPT) change from baseline <−5%, number of patients” value (week 8) was 20. For the same molecule, the “ALT (SGPT) change from baseline <−5%, percent of patients” value (week 8) was “(62.5%)”, the “ALT (SGPT) change from baseline >5%, number of patients” value (week 8) was 8 and the “ALT (SGPT) change from baseline >5%, percent of patients” value (week 8) was “(25.0%)”. For the same molecule, the “ALT (SGPT) change from baseline −5% <= and <=5%, number of patients” value (week 8) was 2, the “ALT (SGPT) change from baseline −5% <= and <=5%, percent of patients” value (week 8) was “(6.3%)” and the “AST (SGOT) change from baseline <−5%, number of patients” value (week 8) was 21. For the same molecule, the “AST (SGOT) change from baseline <−5%, percent of patients” value (week 8) was “(65.6%)”, the “AST (SGOT) change from baseline >5%, number of patients” value (week 8) was 5 and the “AST (SGOT) change from baseline >5%, percent of patients” value (week 8) was “(15.6%)”. For the same molecule, the “AST (SGOT) change from baseline −5% <= and <=5%, number of patients” value (week 8) was 4, the “AST (SGOT) change from baseline −5% <= and <=5%, percent of patients” value (week 8) was “(12.5%)” and the “TOTAL BILIRUBIN change from baseline <−5%, number of patients” value (week 8) was 16. For the same molecule, the “TOTAL BILIRUBIN change from baseline <−5%, percent of patients” value (week 8) was “(50.0%)”, the “TOTAL BILIRUBIN change from baseline >5%, number of patients” value (week 8) was 7 and the “TOTAL BILIRUBIN change from baseline >5%, percent of patients” value (week 8) was “(21.9%)”. The “TOTAL BILIRUBIN change from baseline −5% <= and <=5%, number of patients” value (week 8) was 6, the “TOTAL BILIRUBIN change from baseline −5% <= and <=5%, percent of patients” value (week 8) was “(18.8%)” and the “ALKALINE PHOSPHATASE change from baseline <−5%, number of patients” value (week 12) was 19. For the same molecule, the “ALKALINE PHOSPHATASE change from baseline <−5%, percent of patients” value (week 12) was “(59.4%)”, the “ALKALINE PHOSPHATASE change from baseline >5%, number of patients” value (week 12) was 10 and the “ALKALINE PHOSPHATASE change from baseline >5%, percent of patients” value (week 12) was “(31.3%)”. The “ALKALINE PHOSPHATASE change from baseline −5% <= and <=5%, number of patients” value (week 12) was 1, the “ALKALINE PHOSPHATASE change from baseline −5% <= and <=5%, percent of patients” value (week 12) was “(3.1%)” and the “ALT (SGPT) change from baseline <−5%, number of patients” value (week 12) was 20. The “ALT (SGPT) change from baseline <−5%, percent of patients” value (week 12) was “(62.5%)” and the “ALT (SGPT) change from baseline >5%, number of patients” value (week 12) was 7.
